The text below walks through data of article PMC9699089 (Pathogens, 2022).

In assay [1] the test system is Plasmodium falciparum CQ-resistant strain W2. Put plainly: In vitro antiplasmodial activity, SYBR Green I fluorescence-based method, strain W2. The format is cell-based. The note with it: CQ-resistant strain W2, 48 h incubation, mean of three independent experiments, read-out: P. falciparum Strains IC50 Values W2. The method in brief: (§1)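 P. falciparum cultured in human erythrocytes in RPMI with 0.5% Albumax I, hypoxanthine and gentamicin at 37 °C in a candle jar. Compounds tested from 39 nM to 40 µM for 48 h. Parasite DNA quantified by SYBR Green I fluorescence in saponin/Triton lysis buffer (ex 485/em 535 nm).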

In assay [2] the test system is Plasmodium falciparum CQ-sensitive strain 3D7. Put plainly: In vitro antiplasmodial activity, SYBR Green I fluorescence-based method, strain 3D7. The note with it: CQ-sensitive strain 3D7, 48 h incubation, mean of three independent experiments, read-out: P. falciparum Strains IC50 Values 3D7. The format is cell-based. The method in brief: as §1
Assay [3] relates to Plasmodium telomeric sequence FPf1T G-quadruplex. Put plainly: FRET melting assay, FPf1T. Format: binding, Plasmodium falciparum. The conditions noted are these: compound 2 μM, oligonucleotide 0.2 μM, K+ conditions.
In assay [4] the test system is Plasmodium telomeric sequence FPf8T G-quadruplex. Put plainly: FRET melting assay, FPf8T. The note with it: compound 2 μM, oligonucleotide 0.2 μM, K+ conditions. The format is binding, Plasmodium falciparum.
Assay [5] relates to human duplex sequence FdxT. Description: FRET melting assay, duplex control FdxT. Format: binding. The conditions noted are these: compound 2 μM, oligonucleotide 0.2 μM, K+ conditions.
Assay [6] deals with G4-forming oligonucleotide Pf8 (d[(G3T2CA)3G3]). Description: Native electrospray mass spectrometry, Pf8. Format: binding, Plasmodium. The conditions noted are these: 100 mM TMAA, 1 mM KCl. On the procedure: (§2) Oligonucleotides were purchased in the lyophilized form from Eurogentec (RP-cartridge purification), and dissolved at 1 mM in pure water. TMAA (1 M) was purchased from Santa Cruz Biotechnology and potassium chloride (purity > 99.99%) from Sigma Aldrich (Sigma Aldrich, Saint-Quentin-Fallavier, France). The sample solutions contained 10 µM oligonucleotide and 10 (for CD only) or 20 µM ligand, in a 100 mM TMAA, 1mM KCl buffer. The solutions were incubated overnight at 4 °C before analysis.
(§3) The sample solutions were injected at a 10 µM strand concentration on an Agilent 6560 DTIMS-Q-TOF instrument (Agilent Technologies, Santa Clara, CA, USA), equipped with a dual-ESI source operated in the negative ion mode in soft conditions. The following parameters were used: fragmentor 320 V, trap fill time 1000 µs, trap release time 200 µs, trap entrance grid delta 2 V. The drift tube was filled with helium and the pressure was fixed at 3.89 ± 0.01 Torr (measured by a capacitance diaphragm gauge CDG-500, Agilent Technologies).
(§4) The MS data were extracted using the IM-MS Browser (v. B.08.00; Agilent Technologies). The peak area intensity of each species at the 5- charge state was extracted from their corresponding m/z range (encompassing potassium adducts), and baseline subtracted. The concentrations of all species (free DNA, free ligands, and complexes) and corresponding dissociation constants were determined as previously described.

Assay [7] concerns the target human telomeric sequence 24TTG. Description: Native electrospray mass spectrometry, 24TTG. The format is binding. Also on record: key to Kd 24TTG, stoichiometry 1 (Kd1): n.b.: no binding detected; <LOQ: binding detected but below limit of quantitation. The conditions noted are these: 100 mM TMAA, 1 mM KCl. As to the method:
as §2, §3, §4

The target in assay [8] is duplex-forming sequence DK66. Description: Native electrospray mass spectrometry, DK66. The format is binding. On the set-up: key to Kd DK66, stoichiometry 2 (Kd2) / Kd DK66, stoichiometry 1 (Kd1): n.b.: no binding detected; <LOQ: binding detected but below limit of quantitation. The note with it: 100 mM TMAA, 1 mM KCl; for Kd: read-out: Kd DK66, stoichiometry 1 (Kd1); for Kd DK66, stoichiometry 2 (Kd2): 2:1 ligand:DNA complex. On the procedure:
as §2, §3, §4

The mark [9] stands for this setting: 1:1 ligand:DNA complex, read-out: Kd Pf8, stoichiometry 1 (Kd1).
Where [10] appears, read: 2:1 ligand:DNA complex, read-out: Kd Pf8, stoichiometry 2 (Kd2).
[11] abbreviates: 1:1 ligand:DNA complex, read-out: Kd 24TTG, stoichiometry 1 (Kd1).
Where [12] appears, read: 2:1 ligand:DNA complex, read-out: Kd 24TTG, stoichiometry 2 (Kd2).

Read-outs that look alike come from different tables or passages of the source.

Take `CN(C)CCCCNCc1cc(-c2ccccc2)c2ccc3c(-c4ccccc4)cc(CNCCCCN(C)C)nc3c2n1` [Compound 1c, 2,9-Bis[(4-dimethylaminobutyl)aminomethyl]-4,7-diphenyl-1,10-phenanthroline]: the IC50 – broadly, the concentration that gives 50% inhibition – in assay [1] was 0.03 ± 0.003 µM; in assay [2] it was 10.3 ± 2.13 µM. Besides, the “ΔTm FPf1T” value in assay [3] amounted to 8.9 °C. In addition, in assay [4], the “ΔTm FPf8T” value came out at 10.2 °C. For the same compound, in assay [5], the “ΔTm FdxT” value was −0.5 °C. Moreover, the Kd (in general, the constant that tells how readily two partners part at equilibrium) in assay [6] (setting [9]) turned out to be 3 µM; in assay [6] (setting [10]), 50 µM; in assay [7] (setting [11]) it was 44 µM; in assay [7] (setting [12]) it was 28 µM; in assay [8] (1:1 ligand:DNA complex) it was 110 µM. Moreover, the “Kd DK66, stoichiometry 2 (Kd2)” value in assay [8] is listed as “n.b”.

Consider `CN(C)CCCCCNCc1cc(-c2ccccc2)c2ccc3c(-c4ccccc4)cc(CNCCCCCN(C)C)nc3c2n1` [Compound 1d, 2,9-Bis[(5-dimethylaminopentyl)aminomethyl]-4,7-diphenyl-1,10-phenanthroline], for which the concentration for half-maximal inhibition (IC50) stood at 3.51 ± 0.52 µM in assay [1] and 4.79 ± 0.5 µM in assay [2]. For the same compound, the “ΔTm FPf1T” value in assay [3] was 18.8 °C. For the same compound, the “ΔTm FPf8T” value in assay [4] worked out at 20.5 °C. The “ΔTm FdxT” value in assay [5] is 1.8 °C. Moreover, the Kd is 3 µM in assay [6] (setting [9]); 16 µM in assay [6] (setting [10]); 38 µM in assay [7] (setting [11]); 62 µM in assay [7] (setting [12]); 53 µM in assay [8] (1:1 ligand:DNA complex). Further, the “Kd DK66, stoichiometry 2 (Kd2)” value in assay [8] was “n.b”.

As for `c1ccc(-c2cc(CNCCCN3CCCC3)nc3c2ccc2c(-c4ccccc4)cc(CNCCCN4CCCC4)nc23)cc1` [Compound 1l], the IC50 in assay [1] came out at 0.03 ± 0.01 µM; in assay [2] it was 9.91 ± 1.73 µM. Also, the “ΔTm FPf1T” value in assay [3] was found to be 15.4 °C. In addition, in assay [4], the “ΔTm FPf8T” value came to 14.2 °C. Also, the “ΔTm FdxT” value in assay [5] was 0.7 °C. Besides, the Kd turned out to be 2 µM in assay [6] (setting [9]); 59 µM in assay [6] (setting [10]); 34 µM in assay [7] (setting [11]); 18 µM in assay [7] (setting [12]); 55 µM in assay [8] (1:1 ligand:DNA complex). Moreover, the “Kd DK66, stoichiometry 2 (Kd2)” value in assay [8] is listed as “n.b”.

Turning to `c1ccc(-c2cc(CNCCc3ccccn3)nc3c2ccc2c(-c4ccccc4)cc(CNCCc4ccccn4)nc23)cc1` [Compound 1m], the IC50 was determined as 0.07 ± 0.01 µM in assay [1] and 0.47 ± 0.12 µM in assay [2]. Besides, in assay [3], the “ΔTm FPf1T” value was 1.3 °C. For the same compound, the “ΔTm FPf8T” value in assay [4] came out at 1.0 °C. In assay [5], the “ΔTm FdxT” value was −0.2 °C. Further, in assay [6] (1:1 ligand:DNA complex), the “Kd Pf8, stoichiometry 1 (Kd1)” value was “very weakly bound”. Further, the Kd in assay [6] (setting [9]) stood at 83 µM. Also, in assay [7] (1:1 ligand:DNA complex), the “Kd 24TTG, stoichiometry 1 (Kd1)” value was “n.b”. Moreover, the “Kd DK66, stoichiometry 1 (Kd1)” value in assay [8] (1:1 ligand:DNA complex) is on record as “n.b”.
